Reference: paper PMC8305652, “Copper(II) Complexes Containing Natural Flavonoid Pomiferin Show Considerable In Vitro Cytotoxicity and Anti-inflammatory Effects” (International Journal of Molecular Sciences, 2021)

Tests used:
[1] = test system: THP-1 human monocytic leukemia cell line; test: relative cell viability, WST-1; assay type: cell-based; details: 24 h, six independent experiments
Experimental: The THP-1 human monocytic leukemia cell line was purchased from the European Collection of Cell Cultures (ECACC, Salisbury, UK). Cells were cultured in an RPMI 1640 medium containing stabilized 2 mM L-glutamine (Biosera, Nuaille, France) supplemented with the mixture of antibiotics [100 U/mL penicillin and […] (Biosera, Nuaille, France)], and 10% foetal bovine serum (FBS) (HyClone, Marlborough, MA, USA). The cells were kept in an incubator at 37 °C in an atmosphere of air containing 5% CO2 and 100% humidity.
The relative cell viability of floating monocytes THP-1 were determined after 24 h incubation in a serum-free medium with compounds 1–5 dissolved in N,N-dimethylformamide (DMF) at increasing concentrations (20–0.125 µM) by the cell proliferation reagent WST-1 (Roche, Basel, Switzerland) according to the manufacturer’s manual, as we described previously. The IC50 values were calculated from resultant viability curves by four-parameter logistic (4PL) analysis.

A2780 cells [2] = test: Annexin V/propidium iodide cell death assay, flow cytometry; assay type: cell-based, human; details: 24 h; for Annexin V +/PI + cells (late apoptotic/secondary necrotic) / Annexin V +/PI − cells (early apoptotic): A2780, 15 µM, mean of three experiments
Experimental: Both methods were performed according to the manufacturers’ protocols with 1 modification in the caspase induction assay, which was the use of the CellEvent^TM Caspase-3/7 Green Detection Reagent only for detection of Caspase-3/7 activation. […] After 24 h, the cells were washed once with PBS (0.1 M, pH 7.4), detached with trypsin (0.25% in ethylenediaminetetraacetic acid (EDTA), Sigma-Aldrich), resuspended in 500 µL of the culture medium and divided into 2 separate tubes, the first for apoptosis assay and the second one for caspase activation analysis. After staining with appropriate dyes, samples were analyzed on a BD FACSVerse flow cytometer (Becton Dickinson, Franklin Lakes, NJ, USA) in 3 separate experiments, while at least 10^4 events were recorded for each sample prepared in duplicate.

[3] = test system: colorectal adenocarcinoma (Caco-2); test: in vitro cytotoxicity, MTT assay; assay type: cell-based, human; details: at least three independent experiments
A2780 cells [4] = test: mitochondrial membrane potential, MITO-ID flow cytometry; assay type: cell-based, human; details: A2780, 15 µM, 24 h; compared with cisplatin
Experimental: After 24 h, the cells were washed once with PBS (0.1 M, pH 7.4), detached with trypsin (0.25% in ethylenediaminetetraacetic acid (EDTA), Sigma-Aldrich), and resuspended in 500 µL of culture medium. Then the staining was performed using MITO-ID® Membrane potential detection kit (Enzo Life Sciences, Farmingdale, NY, USA) according to the manufacturer’s protocol and samples were measured in three independent experiments, each time in duplicates on BD FACSVerse flow cytometer (Becton Dickinson, Franklin Lakes, NJ, USA), while at least 10^4 events were recorded for each sample.

A2780 cells [5] = test: cell cycle analysis by flow cytometry; assay type: cell-based, human; details: A2780, 15 µM, 24 h
Experimental: Human ovarian cancer cell line A2780 (Sigma, Darmstadt, Germany) were used for this study. Cells were cultivated at 37 °C under a 5% CO2 atmosphere in an RPMI 1640 medium (Sigma Aldrich, Darmstadt, Germany) supplemented with (the final concentrations in medium): L-glutamine (2 mM), fetal bovine serum (FBS, 10%) and PenStrep (5 U penicillin, 50 µg streptomycin/mL).
After 24 h, the cells were washed once with PBS (0.1 M, pH 7.4) and cell cycle analysis was performed according to the protocol of BD Cycletest^TM Plus DNA kit (Becton Dickinson, Franklin Lakes, NJ, USA). Measurements were performed using BD FACSVerse flow cytometer (Becton Dickinson, Franklin Lakes, NJ, USA) in 3 independent experiments, each done in duplicate, while at least 5 × 10^3 events were recorded for each sample.

osteosarcoma (HOS) = test: in vitro cytotoxicity, MTT assay; assay type: cell-based, human; details: mean ± SD, at least three independent experiments
pUC19 plasmid DNA = test: nuclease-like activity, plasmid DNA cleavage; assay type: biochemical; details: for plasmid DNA nicked to OC-form: 10 µM; for cleavage of plasmid DNA: 300 µM; for DNA cleavage in the presence of ROS scavengers (KI, NaN3, DMSO): 0.66 mM H2O2, scavengers equimolar to complex; for effectivity of plasmid DNA cleavage with H2O2: order 2 ≈ 4 > 1
[6] = test system: prostate adenocarcinoma (PC-3); test: in vitro cytotoxicity, MTT assay; assay type: cell-based, human; details: mean ± SD, at least three independent experiments
Experimental: (§1) The testing was performed on the following human cancer cell lines: breast adenocarcinoma (MCF-7), osteosarcoma (HOS), lung adenocarcinoma (A549), prostate adenocarcinoma (PC-3), ovarian carcinoma (A2780), cisplatin-resistant ovarian carcinoma (A2780R) and colorectal adenocarcinoma (Caco-2) obtained from ATCC collection of cell lines and cultivated according to producer’s instructions.

[7] = test system: lung adenocarcinoma (A549); test: in vitro cytotoxicity, MTT assay; assay type: cell-based, human; details: at least three independent experiments
Experimental: as §1

[8] = test system: ovarian carcinoma (A2780); test: in vitro cytotoxicity, MTT assay; assay type: cell-based, human; details: at least three independent experiments
Experimental: as §1

[9] = test system: cisplatin-resistant ovarian carcinoma (A2780R); test: in vitro cytotoxicity, MTT assay; assay type: cell-based, human; details: mean ± SD, at least three independent experiments
Experimental: as §1

[10] = test system: breast adenocarcinoma (MCF-7); test: in vitro cytotoxicity, MTT assay; assay type: cell-based, human; details: at least three independent experiments
Experimental: as §1

[11] = test system: NF-κB/AP-1 in THP-1-XBlue-MD2-CD14 cells; test: LPS-stimulated NF-κB/AP-1 activity, SEAP reporter; assay type: cell-based, human; details: read 24 h after LPS; for inhibition of LPS-stimulated NF-κB/AP-1 activation: complexes applied at 200 nM and 50 nM, 1 h pre-treatment
Experimental: The activity of transcription factors NF-κB/AP-1 was evaluated using the THP-1-XBlue^TM-MD2-CD14 cell line [obtained from Invivogen (San Diego, CA, USA)], expressing an NF-κB/AP-1-inducible secreted embryonic alkaline phosphatase (SEAP) reporter gene, as was described previously. The complexes 1–5 were applied to the cells at the concentrations of 200 nM and 50 nM, pomiferin (at 200 nM), and a reference drug prednisone at 1 μM, respectively. Lipopolysaccharide (LPS) from E. coli 0111:B4 (Sigma-Aldrich) dissolved in PBS was used to trigger an inflammation-like reaction. The activity of the SEAP was determined by Quanti-Blue^TM reagent (Invivogen, San Diego, CA, USA) according to the manufacturer’s instructions 24 h after lipopolysaccharide stimulation. The activity of NF-κB/AP-1 was determined spectrophotometrically using the FLUOstar Omega microplate reader (BMG Labtech, Ortenberg, Germany) at 655 nm and compared with that of the vehicle.

[12] = water-containing medium (10% DMF), 37 °C, 1 h

Compound | Annexin V +/PI + cells (late apoptotic/secondary necrotic) (A2780 cells [2]) [%] | Annexin V +/PI − cells (early apoptotic) (A2780 cells [2]) [%] | damage of mitochondrial function (membrane potential) (A2780 cells [4]) | effect on LPS-stimulated NF-κB/AP-1 activity at 50 nM [11] | IC50 ([1]; serum-free medium) [µM] | IC50 ([3]; mean ± SD) [µM] | plasmid DNA nicked to OC-form (pUC19 plasmid DNA; [12]) | cleavage of plasmid DNA (pUC19 plasmid DNA; [12]) | DNA cleavage in the presence of ROS scavengers (KI, NaN3, DMSO) (pUC19 plasmid DNA) | effectivity of plasmid DNA cleavage with H2O2 (pUC19 plasmid DNA; 0.66 mM H2O2) | IC50 [6] [µM] | IC50 ([7]; mean ± SD) [µM] | IC50 ([8]; mean ± SD) [µM] | IC50 [9] [µM] | IC50 ([10]; mean ± SD) [µM] | inhibition of LPS-stimulated NF-κB/AP-1 activation [11] | IC50 (osteosarcoma (HOS)) [µM] | further results
CC(C)=CCc1c2c(c3occ(-c4ccc(O)c(O)c4)c(=O)c3c1O)C=CC(C)(C)O2 [pomiferin, 3-(3,4-dihydroxyphenyl)-5-hydroxy-8,8-dimethyl-6-(3-methylbut-2-ene-1-yl)-4H,8H-benzo[1,2-b:3,4-b′]dipyran-4-one] | 49.0 ± 1.9 | 10.0 ± 0.1 | strong ability | slightly increased | – | – | – | – | – | – | – | – | – | – | – | – | – | IC50 ([1]; Homo sapiens, THP-1, serum-free medium): > 10 µM; viability at 15 µM (A2780 cells [2]; Homo sapiens, A2780, 15 μM, Figure 3, one out of three independent experiments, read-out: Annexin - / PI - (viable cells)): 37.1%; IC50 ([3]; Homo sapiens, Caco-2, mean ± SD): 19.8 ± 2.4 µM; cells in the S phase of the cell cycle (A2780 cells [5]; untreated control 21.4 ± 0.8%): 26 ± 0.9%; IC50 (osteosarcoma (HOS); Homo sapiens): 20.7 ± 0.5 µM; lowering of the portion of OC-form formed after addition of hydrogen peroxide (pUC19 plasmid DNA; 0.66 mM H2O2): ca. 20%; effect on supercoiled CCC-form of plasmid DNA (pUC19 plasmid DNA; [12]): did not affect; IC50 ([6]; Homo sapiens): 18.5 ± 0.7 µM; IC50 ([7]; Homo sapiens, A549, mean ± SD): 21.2 ± 1.4 µM; IC50 ([8]; Homo sapiens, A2780, mean ± SD): 8.4 ± 2 µM; IC50 ([9]; Homo sapiens): 4.3 ± 1.3 µM; IC50 ([10]; Homo sapiens, MCF7, mean ± SD): 22 ± 0.1 µM
CC(C)=CCc1c2c(c3occ(-c4ccc(O)c(O)c4)c(=O)c3c1[O-])C=CC(C)(C)O2.CO.O=[N+]([O-])[O-].[Cu+2].c1ccc(-c2ccnc3c2ccc2c(-c4ccccc4)ccnc23)cc1 [Complex 4, (3-(3,4-dihydroxyphenyl)-8,8-dimethyl-6-(3-methylbut-2-en-1-yl)-4H,8H-benzo[1,2-b:3,4-b′]dipyran-4-one-5-olato-κ^2O4:O5)(4,7-diphenyl-1,10-phenanthroline–κ^2N:N)copper(II) nitrate methanol solvate] | 93.3 ± 2.9 | – | strong ability | – | 3.3 ± 1.2 | 22.9 ± 12.9 | ca. 30% | cleave the DNA completely to small fragments | not affected by the addition of the ROS scavengers | comparable with the effectivity of copper sulphate pentahydrate | 13 ± 1.1 | 8.7 ± 0.8 | 12.8 ± 3.1 | 6.6 ± 2.3 | 16 ± 1.1 | able to inhibit | – | cells in G0/G1 phase (A2780 cells [5]; control 58.4 ± 0.5%): 62.1 ± 1.2%
(3-(3,4-dihydroxyphenyl)-8,8-dimethyl-6-(3-methylbut-2-en-1-yl)-4H,8H-benzo[1,2-b:3,4-b′]dipyran-4-one-5-olato-κ^2O4:O5)(dipyrido[3,2-a:2′,3′-c]phenazine–κ^2N4:N5)copper(II) nitrate methanol solvate [Complex 5] | – | – | – | active | 3.1 ± 1.1 | – | – | – | – | – | 3.3 ± 0.1 | 3.1 ± 0.2 | 2.5 ± 0.9 | 2.2 ± 0.5 | 3 ± 0.5 | able to inhibit | 2.4 ± 0.9 | –
CC(C)=CCc1c2c(c3occ(-c4ccc(O)c(O)c4)c(=O)c3c1[O-])C=CC(C)(C)O2.Cc1ccnc(-c2cc(C)ccn2)c1.O.O.O=[N+]([O-])[O-].[Cu+2] [Complex 2, (3-(3,4-dihydroxyphenyl)-8,8-dimethyl-6-(3-methylbut-2-en-1-yl)-4H,8H-benzo[1,2-b:3,4-b′]dipyran-4-one-5-olato-κ^2O4:O5)(4,4′-dimethyl-2,2′-bipyridine–κ^2N:N)copper(II) nitrate dihydrate] | 19.8 ± 0.7 | 9.2 ± 0.8 | strong ability | – | 7.9 ± 1.1 | 5.1 ± 1.6 | ca. 30% | cleave the DNA completely to small fragments | not affected by the addition of the ROS scavengers | comparable with the effectivity of copper sulphate pentahydrate | > 50 | 20.9 ± 0.9 | 5.4 ± 2.4 | 5.3 ± 1.1 | 29.6 ± 2 | able to inhibit | 21.1 ± 1.6 | cells in G2/M phase (A2780 cells [5]; control 20.1 ± 0.4%): 21.9 ± 0.8%
